From patent publication US20090010873A1, “Methods of Cell Therapy, Neurogenesis and Oligodendrogenesis” (YEDA RESEARCH AND DEVELOPMENT CO. LTD., priority 2004, published 2009)

Tested on: aNPCs
Experiment: Neuronal differentiation of aNPCs with CD4+ T cells, T cell-conditioned medium or cytokines
Type: cell-based, mouse
Details: aNPCs cultured 5 days with the cytokine
Description: (xxxiii) Co-culturing of neural progenitor cells and T cells. CD4+ T cells were purified from lymph nodes of 8-week-old C57B16/J mice as previously described (Kipnis et al., 2004). T cells were activated in RPMI medium supplemented with L-glutamine (2 mM), 2-mercaptoethanol (5×10^−5 M), sodium pyruvate (1 mM), penicillin (100 IU/ml), streptomycin (100 μg/ml), nonessential amino acids (1 ml/100 ml), and autologous serum 2% (v/v) in the presence of mouse recombinant IL-2 (mrIL-2; 5 ng/ml) and soluble anti-CD28 and anti-CD3 antibodies (1 ng/ml). T cells were co-cultured (5×10^4 cells/well) with aNPCs (5×10^4 cells/well) for 5 d on cover slips coated with Matrigel (BD Biosciences) in 24-well plates. The cultures were then fixed with 2.5% paraformaldehyde in PBS for 30 min at room temperature and stained for neuronal markers.
We therefore sought to determine whether direct interaction between aNPCs and T cells would also result in an altered pattern of aNPC differentiation. To address this question, we activated CD4+ T cells in vitro by a cognate protocol (with anti-CD3 antibodies, anti-CD28 antibodies, and IL-2) for 24 h and then allowed their activation to continue in co-cultures with aNPCs in a transwell culture system. […] After 5 days in culture the aNPCs in the lower chamber were fixed and analyzed for the appearance of newly formed neurons. […]

IFN-γ
concentration (as low as) inducing an increase in β-III tubulin expression: 1 ng/mL
